US9624161B2 (priority 2009, dated 2017)
Entries after “also recorded” stand apart in the source; their conditions may differ.

Experiments:
intact male rats = assay: Bone preservation despite reduction of LH and testosterone in rats (oral); assay type: in vivo, rat
male Sprague-Dawley rats = assay: Recovery of testosterone levels after 3-day oral dosing in rats; assay type: in vivo, rat; settings: 1 mg/kg oral for three days; no recovery
From the text: Thirty-five (35) male Sprague-Dawley rats weighing approximately 200 g were maintained on a 12-h light/dark cycle with food (2016 Teklad Global 16% Protein Rodent Diet, Harlan, Madison, Wis.) and water available ad libitum. The animal protocol was reviewed and approved by the Institutional Animal Care and Use Committee of the University of Tennessee.
The test article for this study was weighed and dissolved in PEG 300 (100%) (Acros Organics, NJ) to prepare the appropriate dose formulations. Animals were randomly assigned to one of the […] treatment groups (n=5 animals/group). The animals were housed in groups of 2 to 3 animals per cage. Group 1 was sacrificed at the initiation of the study (Day 1) for determination of baseline testosterone levels in intact animals. Groups 2-7 received daily doses of 1, 3, or 30 mg/kg via oral gavage (˜200 uL) for three days. Groups 2, 3, and 4 were sacrificed on Day 4 to measure maximal testosterone suppression. Groups 5, 6, and 7 were allowed to recover for 14 days with a drug free washout period.

[1] = test system: prostate epithelial cancer cells; assay: Proliferation of prostate epithelial cancer cells in vitro; assay type: cell-based
rat ER-β = molecular target: T1, rat ER-β (Rattus norvegicus, UniProt Q62986); assay: Transactivation assay (agonist and antagonist modes), HEK-293 cells, ERE-LUC; assay type: cell-based
T1 construct: expressed in transfected cells; host or cells: HEK-293

male or female dogs = assay: Single and repeated oral dose toxicity in dogs (up to 28 days); assay type: in vivo, dog
From the text: Compound IV was well-tolerated by rats and dogs after single and repeated oral administration (up to 28 days).

[2] = Oral bioavailability in dogs; assay type: in vivo; settings: dog, plasma, depending on the formulation and route of administration
Description: Formulations using polyethylene glycol 300 (PEG300) generally produced higher exposures than microemulsions prepared in Tween 80 diluted in deionized water. […] Importantly, in dogs the exposure in the male 30 mg/kg PEG300 oral dose group exceeded the exposure necessary to produce the maximal effect on prostate reduction in the rat model of LH suppression.

human males = assay: Multiple dose study in human males (100, 300, 600, 1000 mg; days 1-11); assay type: in vivo
PPAR-γ = molecular target: T2, PPAR-γ (Homo sapiens, UniProt P37231); assay: Nuclear receptor cross-reactivity transcriptional activation assay; assay type: cell-based; settings: agonist and antagonist modes
T2 construct: expressed in transfected cells
From the text: (§1) Compound IV was screened for cross-reactivity against rat isoforms of glucocorticoid receptor (GR), mineralocorticoids receptor (MR), progesterone receptor (PR), androgen receptor (AR) and human isoforms of farnesoid X receptor (FXR), liver X receptor (LXR), peroxisome proliferator-activated receptors (PPAR-α and PPAR-γ), and retinoid X receptor (RXR-α) in both agonist and antagonist modes in transcriptional activation assays.

[3] = molecular target: T3, progesterone receptor (PR) (Rattus norvegicus, UniProt Q63449); assay: as above; assay type: cell-based; settings: agonist and antagonist modes
T3 construct: expressed in transfected cells
From the text: as §1

[4] = molecular target: T4, farnesoid X receptor (FXR) (Homo sapiens, UniProt Q96RI1); assay: as above; assay type: cell-based; settings: agonist and antagonist modes
T4 construct: expressed in transfected cells
From the text: as §1

[5] = molecular target: T5, mineralocorticoids receptor (MR) (Rattus norvegicus, UniProt P22199); assay: as above; assay type: cell-based; settings: agonist and antagonist modes
T5 construct: expressed in transfected cells
From the text: as §1

PPAR-α = molecular target: T6, PPAR-α (Homo sapiens, UniProt Q07869); assay: as above; assay type: cell-based; settings: agonist and antagonist modes
T6 construct: expressed in transfected cells
From the text: as §1

[6] = molecular target: T7, glucocorticoid receptor (GR) (Rattus norvegicus, UniProt P06536); assay: as above; assay type: cell-based
T7 construct: expressed in transfected cells
T7 sequence (P06536 1-795): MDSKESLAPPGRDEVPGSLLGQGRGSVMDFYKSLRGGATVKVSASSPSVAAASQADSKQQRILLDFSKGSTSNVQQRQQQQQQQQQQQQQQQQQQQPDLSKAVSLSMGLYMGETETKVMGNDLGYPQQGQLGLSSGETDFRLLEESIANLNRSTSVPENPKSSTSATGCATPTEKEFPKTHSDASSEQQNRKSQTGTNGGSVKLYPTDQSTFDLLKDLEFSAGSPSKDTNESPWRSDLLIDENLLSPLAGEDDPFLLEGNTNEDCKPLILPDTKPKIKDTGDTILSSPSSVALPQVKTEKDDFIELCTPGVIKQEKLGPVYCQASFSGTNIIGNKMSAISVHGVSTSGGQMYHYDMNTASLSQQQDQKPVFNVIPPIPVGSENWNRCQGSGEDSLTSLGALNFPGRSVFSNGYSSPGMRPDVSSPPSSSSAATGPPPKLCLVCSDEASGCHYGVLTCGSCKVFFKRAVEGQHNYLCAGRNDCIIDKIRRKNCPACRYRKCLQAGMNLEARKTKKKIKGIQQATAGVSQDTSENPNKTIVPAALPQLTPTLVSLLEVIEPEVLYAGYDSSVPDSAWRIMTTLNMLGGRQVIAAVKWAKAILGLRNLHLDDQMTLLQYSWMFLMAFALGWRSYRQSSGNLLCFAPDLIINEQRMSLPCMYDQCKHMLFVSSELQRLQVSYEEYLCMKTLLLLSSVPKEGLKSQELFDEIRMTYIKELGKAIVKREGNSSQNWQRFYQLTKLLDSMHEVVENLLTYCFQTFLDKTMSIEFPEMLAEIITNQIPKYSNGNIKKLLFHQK
From the text: as §1

healthy human subjects = assay: Single and multiple dose studies in healthy human subjects; assay type: in vivo; settings: for Subjects with decreased total testosterone levels: multiple doses
Description: There were observations of elevated ALT levels above the upper limit of normal in four subjects in the multiple dose study (3 subjects in the 1000 mg group and 1 subject in the 600 mg group). The highest single observed value of ALT was 129 IU/L or 2.6 times the upper limit of normal. Aspartate aminotransferase levels were also elevated in this subject to 1.9 times the upper limit of normal.
Serum total testosterone levels were assessed throughout the multiple doses study. Total testosterone levels were decreased in 100% (10/10) of the subjects in the 600 mg dose group and 90% (9/10) of the subjects in the […] dose group. The levels of total testosterone were decreased to below the lower limit of normal in 40% (4/10) of the subjects in the 600 mg dose group and 50% (5/10) of the subjects in the 1000 mg dose group.

T1 sequence (Q62986 whole entry): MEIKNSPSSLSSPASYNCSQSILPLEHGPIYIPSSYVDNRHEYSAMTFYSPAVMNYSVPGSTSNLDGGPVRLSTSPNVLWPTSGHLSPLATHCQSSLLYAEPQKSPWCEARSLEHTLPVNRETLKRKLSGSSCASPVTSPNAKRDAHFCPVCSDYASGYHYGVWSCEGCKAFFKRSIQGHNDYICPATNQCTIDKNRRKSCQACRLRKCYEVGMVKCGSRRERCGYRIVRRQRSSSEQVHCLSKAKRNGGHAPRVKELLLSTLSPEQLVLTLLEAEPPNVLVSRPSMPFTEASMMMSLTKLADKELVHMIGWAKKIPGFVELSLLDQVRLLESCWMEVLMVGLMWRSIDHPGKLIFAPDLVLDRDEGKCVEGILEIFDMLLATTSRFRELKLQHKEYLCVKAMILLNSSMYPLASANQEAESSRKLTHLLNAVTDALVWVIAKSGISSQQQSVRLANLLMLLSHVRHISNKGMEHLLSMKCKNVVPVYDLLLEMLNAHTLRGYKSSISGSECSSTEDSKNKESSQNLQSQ
T4 sequence (Q96RI1 whole entry): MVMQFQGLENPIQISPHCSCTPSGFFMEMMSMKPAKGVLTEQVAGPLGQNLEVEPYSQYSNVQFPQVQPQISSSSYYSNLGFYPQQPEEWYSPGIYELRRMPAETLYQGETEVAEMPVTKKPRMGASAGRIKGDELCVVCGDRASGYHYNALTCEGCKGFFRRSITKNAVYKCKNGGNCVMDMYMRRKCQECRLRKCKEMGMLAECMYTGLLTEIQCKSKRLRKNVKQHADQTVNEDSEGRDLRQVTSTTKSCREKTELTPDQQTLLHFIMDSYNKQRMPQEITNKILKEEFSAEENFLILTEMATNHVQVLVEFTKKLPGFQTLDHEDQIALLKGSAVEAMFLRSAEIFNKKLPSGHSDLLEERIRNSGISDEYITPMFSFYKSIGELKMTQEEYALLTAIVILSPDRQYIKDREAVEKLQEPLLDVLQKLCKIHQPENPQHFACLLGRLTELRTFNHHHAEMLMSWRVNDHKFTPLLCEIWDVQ
T2 sequence (P37231 whole entry): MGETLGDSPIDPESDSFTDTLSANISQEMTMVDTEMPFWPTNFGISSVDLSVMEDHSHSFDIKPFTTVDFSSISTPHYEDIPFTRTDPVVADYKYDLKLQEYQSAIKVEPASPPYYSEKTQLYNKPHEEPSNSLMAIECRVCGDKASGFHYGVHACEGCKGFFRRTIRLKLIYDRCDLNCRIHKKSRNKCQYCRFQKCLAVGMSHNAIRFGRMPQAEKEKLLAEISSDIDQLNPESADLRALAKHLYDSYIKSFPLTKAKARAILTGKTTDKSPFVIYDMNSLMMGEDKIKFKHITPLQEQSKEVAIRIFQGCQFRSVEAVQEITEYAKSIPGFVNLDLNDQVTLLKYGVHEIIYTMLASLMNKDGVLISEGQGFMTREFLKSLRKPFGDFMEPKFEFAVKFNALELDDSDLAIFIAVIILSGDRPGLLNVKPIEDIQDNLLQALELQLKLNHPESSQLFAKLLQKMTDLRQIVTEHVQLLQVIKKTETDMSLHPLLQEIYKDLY
T6 sequence (Q07869 whole entry): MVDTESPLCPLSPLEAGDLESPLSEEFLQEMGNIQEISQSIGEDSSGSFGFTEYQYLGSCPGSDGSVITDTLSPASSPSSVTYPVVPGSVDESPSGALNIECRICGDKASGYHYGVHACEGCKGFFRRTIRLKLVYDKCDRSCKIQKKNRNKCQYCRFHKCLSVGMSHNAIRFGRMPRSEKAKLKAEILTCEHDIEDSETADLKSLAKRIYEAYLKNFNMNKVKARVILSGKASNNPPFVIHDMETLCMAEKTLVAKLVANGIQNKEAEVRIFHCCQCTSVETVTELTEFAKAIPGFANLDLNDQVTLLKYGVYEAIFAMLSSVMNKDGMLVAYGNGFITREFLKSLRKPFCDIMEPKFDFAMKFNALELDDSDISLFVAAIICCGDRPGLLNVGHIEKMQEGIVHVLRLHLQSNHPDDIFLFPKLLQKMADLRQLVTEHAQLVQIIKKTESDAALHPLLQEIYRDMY
T5 sequence (P22199 whole entry): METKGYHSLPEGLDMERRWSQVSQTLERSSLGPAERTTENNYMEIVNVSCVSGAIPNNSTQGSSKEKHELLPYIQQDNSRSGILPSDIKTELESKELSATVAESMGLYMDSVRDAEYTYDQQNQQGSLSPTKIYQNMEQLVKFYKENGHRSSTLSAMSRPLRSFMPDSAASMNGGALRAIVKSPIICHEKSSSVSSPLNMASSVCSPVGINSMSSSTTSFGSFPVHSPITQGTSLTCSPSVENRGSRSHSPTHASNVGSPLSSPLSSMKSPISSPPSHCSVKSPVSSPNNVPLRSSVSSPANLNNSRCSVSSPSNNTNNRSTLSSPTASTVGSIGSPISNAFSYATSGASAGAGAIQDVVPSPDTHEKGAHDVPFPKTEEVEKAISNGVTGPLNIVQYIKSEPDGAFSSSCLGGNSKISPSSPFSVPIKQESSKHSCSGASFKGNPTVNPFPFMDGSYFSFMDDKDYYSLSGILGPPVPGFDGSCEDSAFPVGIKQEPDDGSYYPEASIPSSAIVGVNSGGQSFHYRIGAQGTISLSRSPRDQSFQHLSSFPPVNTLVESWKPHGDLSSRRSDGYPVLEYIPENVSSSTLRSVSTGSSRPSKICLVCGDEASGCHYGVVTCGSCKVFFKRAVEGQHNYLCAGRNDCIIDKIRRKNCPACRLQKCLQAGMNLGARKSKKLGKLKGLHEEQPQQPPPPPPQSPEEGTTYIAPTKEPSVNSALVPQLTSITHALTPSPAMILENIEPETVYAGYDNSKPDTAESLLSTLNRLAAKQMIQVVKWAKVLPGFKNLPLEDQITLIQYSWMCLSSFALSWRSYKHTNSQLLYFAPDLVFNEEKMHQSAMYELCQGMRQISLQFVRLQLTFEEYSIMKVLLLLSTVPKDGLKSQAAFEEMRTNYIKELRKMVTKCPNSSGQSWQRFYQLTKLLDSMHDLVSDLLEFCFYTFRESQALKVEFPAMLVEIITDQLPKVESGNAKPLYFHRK
T3 sequence (Q63449 whole entry): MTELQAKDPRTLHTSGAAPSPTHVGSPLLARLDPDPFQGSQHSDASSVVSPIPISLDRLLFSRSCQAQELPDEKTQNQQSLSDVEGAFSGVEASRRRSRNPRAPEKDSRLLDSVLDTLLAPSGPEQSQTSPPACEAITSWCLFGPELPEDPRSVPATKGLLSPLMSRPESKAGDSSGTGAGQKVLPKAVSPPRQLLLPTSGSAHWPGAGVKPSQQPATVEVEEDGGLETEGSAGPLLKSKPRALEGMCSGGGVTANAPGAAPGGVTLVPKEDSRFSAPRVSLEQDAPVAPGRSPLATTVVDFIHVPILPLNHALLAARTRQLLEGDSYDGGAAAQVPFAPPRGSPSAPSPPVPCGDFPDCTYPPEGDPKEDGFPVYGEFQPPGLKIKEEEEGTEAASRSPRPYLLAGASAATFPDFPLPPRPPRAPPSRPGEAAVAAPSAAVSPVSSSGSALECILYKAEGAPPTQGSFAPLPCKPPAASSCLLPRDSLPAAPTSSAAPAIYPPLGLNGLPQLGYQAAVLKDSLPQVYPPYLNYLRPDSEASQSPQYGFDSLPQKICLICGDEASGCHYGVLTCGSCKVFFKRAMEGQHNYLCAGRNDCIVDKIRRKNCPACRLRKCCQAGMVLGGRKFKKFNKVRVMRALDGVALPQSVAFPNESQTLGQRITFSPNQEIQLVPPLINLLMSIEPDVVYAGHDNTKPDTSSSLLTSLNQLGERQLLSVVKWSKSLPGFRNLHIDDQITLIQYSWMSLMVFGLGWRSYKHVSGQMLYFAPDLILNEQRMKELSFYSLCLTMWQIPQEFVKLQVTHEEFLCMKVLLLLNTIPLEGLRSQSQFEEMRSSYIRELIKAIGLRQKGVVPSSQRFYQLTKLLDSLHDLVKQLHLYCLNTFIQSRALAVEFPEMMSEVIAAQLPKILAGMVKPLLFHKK

O=C(c1ccc(O)c(F)c1)N(c1ccc(O)cc1)c1ccc(F)cc1 [Compound IV, 3-fluoro-N-(4-fluorophenyl)-4-hydroxy-N-(4-hydroxyphenyl)benzamide]
Bone loss associated with LH suppression (intact male rats): completely prevented the bone loss
Serum testosterone after dosing (male Sprague-Dawley rats): No significant suppression
Proliferation of prostate epithelial cancer cells [1]: does not increase proliferation; also recorded: did not increase proliferation
Fold less potency to stimulate ERβ-mediated transcription compared to estradiol (rat ER-β): ~1400 fold
Tolerability after single and repeated oral administration (male or female dogs): well-tolerated
bioavailability [2]: 3 to 12%
Change of PSA level (human males; 10 mg): No changes noted
Change of PSA level (human males; 30 mg): No changes noted
Decrease of PSA level (human males; 100 mg): 9.2%
Decrease of free testosterone level (human males; 100 mg): 17.0%
Agonist or antagonist activity at PPAR-γ (PPAR-γ): did not display any agonist or antagonist activity
Agonist or antagonist activity at PR [3]: did not display any agonist or antagonist activity
Agonist or antagonist activity at FXR [4]: did not display any agonist or antagonist activity
Agonist or antagonist activity at MR [5]: did not display any agonist or antagonist activity
Agonist or antagonist activity at PPAR-α (PPAR-α): did not display any agonist or antagonist activity
Cross-reaction with glucocorticoid receptor (GR) ([6]; FIG. 12A): does not; also recorded: did not
Agonist or antagonist activity at GR ([6]; agonist and antagonist modes): did not display any agonist or antagonist activity
Subjects with total testosterone below the lower limit of normal (healthy human subjects; 600 mg dose group): 40%
Subjects with decreased total testosterone levels (healthy human subjects; 600 mg dose group): 100%
Subjects with decreased total testosterone levels (healthy human subjects; 997 mg dose group): 90%
Subjects with total testosterone below the lower limit of normal (healthy human subjects; 1000 mg dose group): 50%
Time for total testosterone to return to normal after discontinuation (healthy human subjects; all subjects): ≤ 6 days
Elevations in total bilirubin (healthy human subjects; any subject in the trial): no observations of elevations
Well tolerated single doses (healthy human subjects; healthy human subjects): up to 1247 mg
Well tolerated multiple doses (healthy human subjects; healthy human subjects, up to 10 days): up to 997 mg
Aspartate aminotransferase elevation in the same subject (healthy human subjects; multiple dose study): 1.9 times the upper limit of normal
Subjects with ALT above the upper limit of normal (healthy human subjects; multiple dose study, 600 mg group): 1 subject
Subjects with ALT above the upper limit of normal (healthy human subjects; multiple dose study, 1000 mg group): 3 subjects
Subjects with total testosterone below 1.73 nmol/L (castrate range) (healthy human subjects; multiple doses study): no subject
